How the values were obtained:
[1] = tested on: BT474-M3 breast cancer tumor cells; conditions: cyclophosphamide 170 mg/kg pre-dose
Experimental: NCR/nu mice are inoculated with 15×10^6 BT474-M3 cells (into the mammary fat pad, in 50 μl media), 20×10^6 MDA-MB-453 (s.c. into the right flank of the mouse in 100 μl of media) or 10×10^6 MCF-7 HER2 cells (into the mammary fat pad, in 50 μl media). […] When tumors reached an average volume of 200-300 mm^3, mice are pre-dosed or not with cyclophosphamide (i.p. 170 mg/kg) at different time points as indicated. Mice are subsequently dosed with DiI5-labeled anthracycline-loaded anti-HER2 immunoliposome-targeted liposomal doxorubicin (3 mg/kg), DiI5-labelled liposomal doxorubicin PLD (3 mg/kg), or free doxorubicin all at (3 mg/kg). […]
Tumor, heart and the dorsal skin are collected and frozen at −80° for further HPLC doxorubicin quantification.
Tumors, hearts and dorsal skin are weighed and minced. […] Supernatants and doxorubicin standards are analyzed by HPLC (Dionex) using a C18 reverse phase column (Synergi Polar-RP 80A 250×4.60 mm 4 μm column). […] The doxorubicin peak is detected at 6.9 min using an in-line fluorescence detector excited at 485 nm, and emitting at 590 nm. The extraction efficiency of doxorubicin from tumor, heart and skin tissues is estimated using internal control tissues spiked with known amounts of doxorubicin, and sample readings are corrected to account for the extraction efficiency. […]

[2] = 96 hours after cyclophosphamide treatment

Experimental for BT474-M3 tumor: Slides are air-dried and mounted with ProLong® Gold with Hoechst® stain to counterstain nuclei. Cleaved caspase 3, γ-H2AX, cleaved PARP and cytokeratin stainings are performed on FFPE-sections (5 μm thick). After deparaffinization and rehydration, heat-mediated antigen retrieval is performed on a in a pre-treatment module (Thermo Scientific, Waltham, Mass.) in citrate buffer (pH 6) for 25 min at 102° C. After antigen retrieval, slides are stained on a Lab Vision Autostainer® 360 (Thermo Scientific). Endogenous peroxidase activity is blocked with Peroxidazed® 1 (10 min at RT) followed by a washing step with TBST and a protein blocking step with Background Sniper (10 min at RT). Next, slides are incubated with the primary antibodies diluted in Da Vinci Green or Signal Stain® Antibody diluent for 1 hr at room temperature (RT). After washing, slides are incubated with secondary antibodies for 30 min at RT Antibodies used are goat anti-mouse Alexa Fluor® 488 and goat anti-rabbit Alexa Fluor® 647, diluted in Da Vinci Green, for the γ-H2AX and cleaved caspase 3 antibodies, respectively; and EnVision®+ System-HRP labeled Polymer anti-rabbit (for the signal amplification of the cleaved PARP signal) containing the secondary antibody for cytokeratin (goat anti-mouse Alexa Fluor® 555) for the cleaved PARP and cytokeratin double staining. After washing, for the signal amplification of cleaved PARP, samples are incubated with TSA™ Cyanine 5 Tyramide Reagent for 10 min at RT. Slides are washed and counterstained with Hoechst followed by a wash step and mounting with ProLong® Gold. Slides are imaged on an Aperio® FL slide scanner at 20× magnification.
Images are analyzed using rulesets written in Definiens® Developer XD 2 (Definiens, Munich, Germany). Images are analyzed as full tumor or heart tissues. […]
The extent of cleaved PARP positive tumor cells is determined in cleaved PARP and cytokeratin double stained tumor sections. […]

## O.O=P1(N(CCCl)CCCl)NCCCO1 (stereo not shown) [cyclophosphamide, 2-[bis(2-chloroethyl)amino]tetrahydro-2H-1,3,2-oxazaphosphorine 2-oxide monohydrate]
[1]
  effect of cyclophosphamide on non-target organs such as skin or heart: no effects were observed
BT474-M3 tumor; [2]
  effect on non-tumor cells: non-tumor cells were unaffected
  interstitial space vs control: significantly more interstitial space than the control cell sample
BT474-M3 tumor; tissue harvested 48 hr-120 hr post cyclophosphamide
  tumor cell apoptosis, tumor cell density and interstitial space: induction of tumor cell apoptosis and consequent reduction of tumor cell density and increase in interstitial space

Reference: patent US20170231911A1, “METHODS AND COMPOSITIONS FOR IMPROVING OUTCOMES OF LIPOSOMAL CHEMOTHERAPY” (Merrimack Pharmaceuticals, Inc., priority 2013, published 2017)
